# Experimental data: PubChem BioAssay AID328 (DTP/NCI, 2004)
# “And” between values parts separate entries of the source, which are not always exact repeats. Equal values may be shown once. Inconclusive results and toxic doses are left out. Starred links: 1 amine or outer side, 2 acyl side, 3 side chain; linkers in the order of their positions; H or OH if unused. Positions of bridges follow the written chain, without caps; N, C: chain ends. Non-standard residues stand in square brackets, D forms with d. Residues, ends and D or L forms follow the SMILES beside them. Chains are numbered I, II in the order given. Actinocin(9to1) = Cc1c2oc3c(C)ccc(C(=O)[*:1])c3nc-2c(C(=O)[*:2])c(N)c1=O; NMeV = CN[CH](C(=O)O)C(C)C; Aze = O=C(O)[CH]1CCN1; Sar = CNCC(=O)O
# System: BDF1 mice, P388 leukemia ip, median survival T/C
# Experiment: NCI In Vivo Anticancer Drug Screen. Data for tumor model P388 Leukemia (intraperitoneal) in B6D2F1 (BDF1) mice
# Settings: endpoint: median survival time, higher = longer survival
# Summary of the method: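 Survival ratio, drug arm over vehicle arm, in mice with a transplanted tumour.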
# [1] = dose: 3.13 mg/kg/injection, schedule: Q01DX009 (ip), vehicle: saline with Tween-80
# [2] = dose: 6.25 mg/kg/injection, schedule: Q01DX009 (ip), vehicle: saline with Tween-80
compound,measurement,setting,value
"Cc1c2oc3c(C)ccc(C(=O)NC4C(=O)NC(C(C)C)C(=O)N5CCC5C(=O)N(C)CC(=O)N(C)C(C(C)C)C(=O)OC4C)c3nc-2c(C(=O)NC2C(=O)NC(C(C)C)C(=O)N3CCC3C(=O)N(C)CC(=O)N(C)C(C(C)C)C(=O)OC2C)c(N)c1=O (stereo not drawn) (I: TV[Aze][Sar][NMeV] / II: TV[Aze][Sar][NMeV]; ester I:1-I:C, II:1-II:C; linker I:N-II:N via Actinocin(9to1); configuration not given here)",T/C,"dose: 0.26 mg/kg/injection, schedule: Q04DX003 (ip), vehicle: saline",226 % of control
same,T/C,"dose: 0.4 mg/kg/injection, schedule: Q04DX003 (ip), vehicle: saline",180 % of control
same,T/C,"dose: 0.6 mg/kg/injection, schedule: Q04DX003 (ip), vehicle: saline",319 % of control
same,T/C,"dose: 12.5 micrograms/kg/injection, schedule: Q01DX009 (ip), vehicle: saline + alcohol",190 % of control
same,T/C,"dose: 25.0 micrograms/kg/injection, schedule: Q01DX009 (ip), vehicle: saline + alcohol",197 % of control
same,T/C,"dose: 50.0 micrograms/kg/injection, schedule: Q01DX009 (ip), vehicle: saline + alcohol",239 % of control
same,T/C,"dose: 75.0 micrograms/kg/injection, schedule: Q01DX009 (ip), vehicle: saline + alcohol",237 % of control
same,T/C,"dose: 100.0 micrograms/kg/injection, schedule: Q01DX009 (ip), vehicle: saline + alcohol",260 % of control
same,T/C,"dose: 112.5 micrograms/kg/injection, schedule: Q01DX009 (ip), vehicle: saline + alcohol",274 % of control
same,T/C,"dose: 150.0 micrograms/kg/injection, schedule: Q01DX009 (ip), vehicle: saline + alcohol",274 % of control
same,T/C,"dose: 150.0 micrograms/kg/injection, schedule: Q04DX003 (ip), vehicle: saline + alcohol",218 % of control
same,T/C,"dose: 200.0 micrograms/kg/injection, schedule: Q01DX009 (ip), vehicle: saline + alcohol",166 % of control
same,T/C,"dose: 216.0 micrograms/kg/injection, schedule: Q04DX003 (ip), vehicle: saline + alcohol",207 % of control
same,T/C,"dose: 225.0 micrograms/kg/injection, schedule: Q01DX009 (ip), vehicle: saline + alcohol",108 % of control
same,T/C,"dose: 225.0 micrograms/kg/injection, schedule: Q04DX003 (ip), vehicle: saline + alcohol",212 % of control
same,T/C,"dose: 300.0 micrograms/kg/injection, schedule: Q01DX009 (ip), vehicle: saline + alcohol",113 % of control
same,T/C,"dose: 360.0 micrograms/kg/injection, schedule: Q04DX003 (ip), vehicle: saline + alcohol",225 % of control
same,T/C,"dose: 450.0 micrograms/kg/injection, schedule: Q04DX003 (ip), vehicle: saline + alcohol",238 % of control and 336 % of control
same,T/C,"dose: 900.0 micrograms/kg/injection, schedule: Q04DX003 (ip), vehicle: saline + alcohol",88 % of control and 117 % of control
same,T/C,"dose: 1000.0 micrograms/kg/injection, schedule: Q04DX003 (ip), vehicle: saline + alcohol",97 % of control
same,T/C,"dose: 1200.0 micrograms/kg/injection, schedule: Q04DX003 (ip), vehicle: saline + alcohol",102 % of control
CCN(CC)c1ccc(/C=C/c2ccnc3ccccc23)cc1,T/C,"dose: 1.56 mg/kg/injection, schedule: Q01DX009 (ip), vehicle: saline with Tween-80",95 % of control
same,T/C,[1],105 % of control
same,T/C,[2],90 % of control
CCN1CC=CCC1,T/C,"dose: 25.0 mg/kg/injection, schedule: Q01DX009 (ip), vehicle: saline",95 % of control
same,T/C,"dose: 25.0 mg/kg/injection, schedule: Q04DX003 (ip), vehicle: saline",95 % of control and 104 % of control and 118 % of control
same,T/C,"dose: 35.0 mg/kg/injection, schedule: Q04DX003 (ip), vehicle: saline",109 % of control
same,T/C,"dose: 50.0 mg/kg/injection, schedule: Q01DX009 (ip), vehicle: saline",100 % of control
same,T/C,"dose: 75.0 mg/kg/injection, schedule: Q04DX003 (ip), vehicle: saline",86 % of control
same,T/C,"dose: 100.0 mg/kg/injection, schedule: Q01DX009 (ip), vehicle: saline",116 % of control
same,T/C,"dose: 100.0 mg/kg/injection, schedule: Q04DX003 (ip), vehicle: saline",109 % of control
CCOC(=O)/C=C(\C)Sc1cc(O)c2ccccc2c1O,T/C,[1],102 % of control
same,T/C,[2],103 % of control
CN(N=O)C(N)=O,T/C,"dose: 25.0 mg/kg/injection, schedule: Q04DX003 (ip), vehicle: saline with Tween-80",150 % of control
same,T/C,"dose: 37.5 mg/kg/injection, schedule: Q04DX003 (ip), vehicle: saline with Tween-80",154 % of control
O=C1OC(c2ccccc2)CC1NCc1ccccc1 (stereo not drawn),T/C,"dose: 100.0 mg/kg/injection, schedule: Q01DX001 (ip), vehicle: saline with Tween-80",100 % of control
same,T/C,"dose: 200.0 mg/kg/injection, schedule: Q01DX001 (ip), vehicle: saline with Tween-80",100 % of control
same,T/C,"dose: 400.0 mg/kg/injection, schedule: Q01DX001 (ip), vehicle: saline with Tween-80",100 % of control
